{"source": "patent US11873298B2", "about": "“Compounds and uses thereof” (JANSSEN PHARMACEUTICA NV, priority 2017, dated 2024)", "key": {"[1]": {"molecular_target": "T1, SCD1 (Homo sapiens, UniProt O00767)", "T1 construct": "host or cells: S. cerevisiae ole1Δ strain (W303 pdr1Δ pdr3Δ background), plasmid pRS316 with TDH3 promoter and CYC1 terminator", "T1 sequence (O00767 1-359)": "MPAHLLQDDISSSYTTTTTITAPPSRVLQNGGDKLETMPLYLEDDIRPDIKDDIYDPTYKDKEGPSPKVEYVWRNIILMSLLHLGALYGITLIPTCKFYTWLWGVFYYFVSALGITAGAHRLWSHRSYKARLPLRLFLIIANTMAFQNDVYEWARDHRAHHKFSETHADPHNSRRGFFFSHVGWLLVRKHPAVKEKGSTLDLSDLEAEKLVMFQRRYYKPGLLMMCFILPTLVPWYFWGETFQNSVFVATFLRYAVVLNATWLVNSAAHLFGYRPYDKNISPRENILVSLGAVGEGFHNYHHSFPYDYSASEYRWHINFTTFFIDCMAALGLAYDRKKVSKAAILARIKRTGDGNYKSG", "assay": "Growth inhibition of humanized yeast strain expressing SCD1 as sole desaturase", "type": "cell-based", "method_in_brief": "(§1)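 Measured by optical density at 600 nm, growth of desaturase-dependent yeast (OLE1 deleted; human SCD1, human SCD5 or yeast Ole1 supplied from plasmid) was scored after 24 h (Ole1) or 40 h (SCD1, SCD5) at 30° C. in galactose media lacking uracil with DMSO-delivered compound.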"}, "[2]": {"molecular_target": "T2, SCD5 (Homo sapiens, UniProt Q86SK9)", "T2 construct": "host or cells: S. cerevisiae ole1Δ strain (W303 pdr1Δ pdr3Δ background), plasmid pRS316 with TDH3 promoter and CYC1 terminator", "T2 sequence (Q86SK9 1-330)": "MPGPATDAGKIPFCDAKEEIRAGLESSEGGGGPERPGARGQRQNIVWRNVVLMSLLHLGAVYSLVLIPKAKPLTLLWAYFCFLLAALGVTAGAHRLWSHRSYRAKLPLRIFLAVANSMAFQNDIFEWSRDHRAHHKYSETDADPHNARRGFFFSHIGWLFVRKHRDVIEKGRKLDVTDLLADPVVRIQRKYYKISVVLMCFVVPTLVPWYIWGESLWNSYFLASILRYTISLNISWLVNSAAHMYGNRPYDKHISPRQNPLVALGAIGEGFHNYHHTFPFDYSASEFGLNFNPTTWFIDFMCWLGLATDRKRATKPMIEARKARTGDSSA", "assay": "Growth inhibition of humanized yeast strain expressing SCD5 as sole desaturase", "type": "cell-based", "method_in_brief": "as §1"}, "[3]": {"settings": "growth inhibition of humanized yeast strain expressing human SCD1"}, "[4]": {"settings": "growth inhibition of humanized yeast strain expressing human SCD5"}, "[5]": {"settings": "humanized yeast strain expressing SCD1"}, "[6]": {"settings": "humanized yeast strain expressing SCD5"}}, "data": [{"compound": "CC(C)(C)OC(=O)N1CCN(c2nc(-c3ccc4cn(C5COC5)nc4c3)no2)CC1", "note": "[Compound 701]", "values": [{"measurement": "IC50", "setting": "[1]; [3]", "result": "> 45", "unit": "µM"}, {"measurement": "IC50", "setting": "[2]; [4]", "result": "> 45000", "unit": "nM"}]}, {"compound": "CC(C)(C)OC(=O)N1CCC(c2nc(-c3ccc4cn(C5CCOC5)nc4c3)no2)CC1", "note": "(stereo not drawn) [Compound 655]", "values": [{"measurement": "IC50", "setting": "[1]; [3]", "result": "> 45", "unit": "µM"}, {"measurement": "IC50", "setting": "[2]; [4]", "result": "> 45000", "unit": "nM"}]}, {"compound": "Cc1nn(C)c2cc(-c3noc(C4CN(C(=O)OC(C)(C)C)C4)n3)ccc12", "note": "[Compound 365]", "values": [{"measurement": "SCD1 % Max Inhibition", "setting": "[1]; [5]", "result": 58.08, "unit": "%"}, {"measurement": "IC50", "setting": "[2]; [6]", "result": "> 45000", "unit": "nM"}, {"measurement": "SCD5 % Max Inhibition", "setting": "[2]; [6]", "result": 23.74, "unit": "%"}]}, {"compound": "CC(C)(C)OC(=O)N1CCC(c2nc(-c3ccn4cnc(C#N)c4c3)no2)CC1", "note": "[Compound 833]", "values": [{"measurement": "IC50", "setting": "[1]; humanized yeast strain, 40 h", "result": "> 45", "unit": "µM"}, {"measurement": "IC50", "setting": "[2]; humanized yeast strain, 40 h", "result": "> 45000", "unit": "nM"}]}, {"compound": "CC(C)(C)OC(=O)N1CCC(c2nc(-c3ccc4cnn(C5(C)COC5)c4c3)no2)CC1", "note": "[Compound 753]", "values": [{"measurement": "IC50", "setting": "[1]; humanized yeast strain, 40 h", "result": "> 45", "unit": "µM"}, {"measurement": "IC50", "setting": "[2]; humanized yeast strain, 40 h", "result": 585, "unit": "nM"}]}, {"compound": "CC(C)(C)OC(=O)N1CCC(c2nc(-c3ccn4cncc4c3)no2)CC1", "note": "[Compound 793]", "values": [{"measurement": "IC50", "setting": "[1]; humanized yeast strain, 40 h", "result": "> 45", "unit": "µM"}, {"measurement": "IC50", "setting": "[2]; humanized yeast strain, 40 h", "result": "> 45000", "unit": "nM"}]}, {"compound": "CC(C)(C)OC(=O)N1CCN(c2nc(-c3ccc4cnn(C5COC5)c4c3)no2)CC1", "note": "[Compound 664]", "values": [{"measurement": "IC50", "setting": "[1]; [3]", "result": 23.5, "unit": "µM"}, {"measurement": "IC50", "setting": "[2]; [4]", "result": 23, "unit": "nM"}]}, {"compound": "CC(C)(C)OC(=O)N1CCC(c2nc(-c3ccc4cnc(C#N)n4c3)no2)CC1", "note": "[Compound 942]", "values": [{"measurement": "IC50", "setting": "[1]; humanized yeast strain, 40 h", "result": "> 45", "unit": "µM"}, {"measurement": "IC50", "setting": "[2]; humanized yeast strain, 40 h", "result": 9160, "unit": "nM"}]}, {"compound": "CN1CC2CN(c3nc(-c4ccc5cn(C6COC6)nc5c4)no3)CCN2C1=O", "note": "(stereo not drawn) [Compound 1143]", "values": [{"measurement": "IC50", "setting": "[1]; humanized yeast strain, 40 h", "result": "> 45", "unit": "µM"}, {"measurement": "IC50", "setting": "[2]; humanized yeast strain, 40 h", "result": "> 45000", "unit": "nM"}]}, {"compound": "COC(=O)N1CCN(c2nc(-c3ccc4cnn(C5CCOC5)c4c3)no2)CC1", "note": "(stereo not drawn) [Compound 803]", "values": [{"measurement": "IC50", "setting": "[1]; humanized yeast strain, 40 h", "result": 12.9, "unit": "µM"}, {"measurement": "IC50", "setting": "[2]; humanized yeast strain, 40 h", "result": 679, "unit": "nM"}]}, {"compound": "CC(CF)n1ncc2ccc(-c3noc(C4CCN(C(=O)OC5(C)CC5)CC4)n3)cc21", "note": "(stereo not drawn) [Compound 607]", "values": [{"measurement": "IC50", "setting": "[1]; [3]", "result": "> 45", "unit": "µM"}, {"measurement": "IC50", "setting": "[2]; [4]", "result": 511, "unit": "nM"}]}, {"compound": "CC(C)(C)OC(=O)N1CCC(c2noc(-c3cncc(N4CCC(F)(F)C4)c3)n2)CC1", "note": "[Compound 1181]", "values": [{"measurement": "IC50", "setting": "[1]; humanized yeast strain, 40 h", "result": "> 45", "unit": "µM"}, {"measurement": "IC50", "setting": "[2]; humanized yeast strain, 40 h", "result": 470, "unit": "nM"}]}, {"compound": "CC(C)(C)OC(=O)N1CC=C(c2nsc(-c3ccc4cnn(C5COC5)c4c3)n2)CC1", "note": "[Compound 790]", "values": [{"measurement": "IC50", "setting": "[1]; humanized yeast strain, 40 h", "result": "> 45", "unit": "µM"}, {"measurement": "IC50", "setting": "[2]; humanized yeast strain, 40 h", "result": 53, "unit": "nM"}]}, {"compound": "COC(=O)N1CCC(c2noc(-c3ccnc(CC4CC4)c3)n2)CC1", "note": "[Compound 1081]", "values": [{"measurement": "IC50", "setting": "[1]; humanized yeast strain, 40 h", "result": "> 45", "unit": "µM"}, {"measurement": "IC50", "setting": "[2]; humanized yeast strain, 40 h", "result": 2430, "unit": "nM"}]}, {"compound": "CC(C)n1ncc2ccc(-c3noc(C4CCN(C(=O)C56CC(C(F)(F)F)(C5)C6)CC4)n3)cc21", "note": "[Compound 757]", "values": [{"measurement": "IC50", "setting": "[1]; humanized yeast strain, 40 h", "result": "> 45", "unit": "µM"}, {"measurement": "IC50", "setting": "[2]; humanized yeast strain, 40 h", "result": 4950, "unit": "nM"}]}, {"compound": "COC(=O)N1CCC(F)(c2nc(-c3ccc4cnn(C(C)C)c4c3)no2)CC1", "note": "[Compound 622]", "values": [{"measurement": "IC50", "setting": "[1]; [3]", "result": "> 45", "unit": "µM"}, {"measurement": "IC50", "setting": "[2]; [4]", "result": 1610, "unit": "nM"}]}, {"compound": "COC1CCC(S(=O)(=O)N2CCC(c3nc(-c4ccc5cnn(C(C)C)c5c4)no3)CC2)CC1", "note": "(stereo not drawn) [Compound 517]", "values": [{"measurement": "IC50", "setting": "[1]; [5]", "result": "> 45", "unit": "µM"}, {"measurement": "IC50", "setting": "[2]; [6]", "result": "> 45000", "unit": "nM"}]}, {"compound": "COC(=O)N1CCC(c2noc(-c3cc(Br)c4cnn(C5COC5)c4c3)n2)CC1", "note": "[Compound 1043]", "values": [{"measurement": "IC50", "setting": "[1]; humanized yeast strain, 40 h", "result": "> 45", "unit": "µM"}, {"measurement": "IC50", "setting": "[2]; humanized yeast strain, 40 h", "result": 11, "unit": "nM"}]}, {"compound": "COCC(COC)n1ncc2ccc(-c3nc(C4CCN(C(=O)OC)CC4)no3)cc21", "note": "[Compound 840]", "values": [{"measurement": "IC50", "setting": "[1]; humanized yeast strain, 40 h", "result": "> 45", "unit": "µM"}, {"measurement": "IC50", "setting": "[2]; humanized yeast strain, 40 h", "result": 20700, "unit": "nM"}]}, {"compound": "CC(C)(C)OC(=O)N1CCN(c2noc(-c3ccnc(N4CCOCC4)c3)n2)CC1", "note": "[Compound 943]", "values": [{"measurement": "IC50", "setting": "[1]; humanized yeast strain, 40 h", "result": "> 45", "unit": "µM"}, {"measurement": "IC50", "setting": "[2]; humanized yeast strain, 40 h", "result": "> 45000", "unit": "nM"}]}, {"compound": "CC(C)C(=O)N1CC[C@@H](c2noc(-c3ccc4cnn(C5COC5)c4c3)n2)C[C@@H]1C", "note": "[Compound 1055]", "values": [{"measurement": "IC50", "setting": "[1]; humanized yeast strain, 40 h", "result": "> 45", "unit": "µM"}, {"measurement": "IC50", "setting": "[2]; humanized yeast strain, 40 h", "result": 4.88, "unit": "nM"}]}, {"compound": "CC(C)(C)OC(=O)N1CCC(c2noc(-c3cc(C4CCOC4)ccn3)n2)CC1", "note": "(stereo not drawn) [Compound 1192]", "values": [{"measurement": "IC50", "setting": "[1]; humanized yeast strain, 40 h", "result": "> 45", "unit": "µM"}, {"measurement": "IC50", "setting": "[2]; humanized yeast strain, 40 h", "result": 40, "unit": "nM"}]}, {"compound": "O=C(C1CC1)N1CCC(c2noc(-c3ccnc(Cl)c3)n2)CC1", "note": "[Compound 1123]", "values": [{"measurement": "IC50", "setting": "[1]; humanized yeast strain, 40 h", "result": "> 45", "unit": "µM"}, {"measurement": "IC50", "setting": "[2]; humanized yeast strain, 40 h", "result": 6640, "unit": "nM"}]}, {"compound": "O=C(C1CC2(CC2)C1)N1CCC(c2noc(-c3ccc4oc(=O)n(C5COC5)c4c3)n2)CC1", "note": "[Compound 1021]", "values": [{"measurement": "IC50", "setting": "[1]; humanized yeast strain, 40 h", "result": "> 45", "unit": "µM"}, {"measurement": "IC50", "setting": "[2]; humanized yeast strain, 40 h", "result": 223, "unit": "nM"}]}, {"compound": "O=C(c1nccs1)N1CCN(c2nc(-c3ccc4cnn(C5COC5)c4c3)no2)CC1", "note": "[Compound 740]", "values": [{"measurement": "IC50", "setting": "[1]; [3]", "result": "> 45", "unit": "µM"}, {"measurement": "IC50", "setting": "[2]; [4]", "result": 1430, "unit": "nM"}]}, {"compound": "CC1(CC(=O)N2CCC(c3noc(-c4ccc5cnn(C6COC6)c5c4)n3)CC2)CC1", "note": "[Compound 886]", "values": [{"measurement": "IC50", "setting": "[1]; humanized yeast strain, 40 h", "result": 10.6, "unit": "µM"}, {"measurement": "IC50", "setting": "[2]; humanized yeast strain, 40 h", "result": 60, "unit": "nM"}]}, {"compound": "Cn1ncc2ccc(-c3noc(C4CCNCC4)n3)cc21", "note": "[Compound 500]", "values": [{"measurement": "IC50", "setting": "[1]; [5]", "result": "> 45", "unit": "µM"}, {"measurement": "IC50", "setting": "[2]; [6]", "result": "> 45000", "unit": "nM"}]}, {"compound": "CC(C)(C)OC(=O)N1CCN(c2nc(-c3ccc4cn(C5CCC5)nc4c3)no2)CC1", "note": "[Compound 729]", "values": [{"measurement": "IC50", "setting": "[1]; [3]", "result": "> 45", "unit": "µM"}, {"measurement": "IC50", "setting": "[2]; [4]", "result": "> 45000", "unit": "nM"}]}]}
